According to patent US20040058868A1, “Methods for identification of compounds modulating insulin resistance” (priority 2002, published 2004):

Columns and labels:
[1] = clinical trials in humans, reference [26]; cited from earlier work
[2] = system: IRS-1 tyrosine phosphorylation in MCF-7 cells; assay: IRS-1 tyrosine phosphorylation: immunoprecipitation with anti-IRS-1, western blot with anti-phospho-tyrosine antibodies; type: cell-based, human; settings: insulin 10 min, FIG. 3
Description: FIG. 3 illustrates immunoprecipitation of IRS-1 and detection of antiphosphotyrosine. MCF-7 cells were treated as follows: lane 1: insulin 10 min; lane 2: PMA & TSA for 4 h and insulin 10 min; lane 3: PMA for 4 h and insulin 10 min; lane 4: PMA & TSA for 4 h; lane 5: PMA for 4 h; lane 6: control (vehicle);
(§1) To further validate the IRS-1/HDAC2 interaction, several mammalian cell lines were used. MCF-7 is a human breast adenocarcinoma cell line, HepG2 is a hepatocellular carcinoma cell line and L6 is a rat skeletal muscle cell line. The MCF-7 cell line was chosen since these cells have a high endogenous production of IRS-1. Cells were grown to confluency, treated with IGF-1 or PMA ([…]) for different lengths of time and then harvested in hypotonic cell lysis buffer (comprising 20 mM Hepes, pH 7.6, 20% glycerol, 10 mM NaCl, 1.5 mM MgCl2, 0.2 mM EDTA, 0.1% NP40, 25 mM NaF, 25 mM β-glycerophosphate, 1 mM DTT, 1 mM Na orthovanadate with protease inhibitors). All precleared fractions were matched for protein content and then immunoprecipitated with anti-IRS-1 antibody. […] A similar. experiment was performed the other way around, i.e. HDAC2 was immunoprecipitated from the cell extracts and the subsequent membrane was probed with anti-IRS-1 antibodies. […]

[3] = system: IRS-1 acetylation in MCF-7 cells; assay: IRS-1 acetylation: immunoprecipitation with anti-IRS-1, western blot with anti-acetyl lysine antibodies; type: cell-based, human; settings: MCF-7 cells treated with TSA
Description: FIG. 2 illustrates immunoprecipitation of IRS-1 and detection of anti-acetyl-lysine. MCF-7 cells were treated as follows: lane 1: IGF-1 for 10 min; lane 2: IGF-1 for 30 min; lane 3: IGF-1 for 1 h; lane 4: IGF-1 for 6 h; lane 5: IGF-1 for 24 h; lane 6: PMA for 6 h; lane 7: PMA for 6 h and IGF-1 for 10 min; lane 8: PMA for 24 h; lane 9: PMA and TSA for 6 h; lane 10: TSA for 6 h; lane 11: control (vehicle).
as §1

IRS-1/HDAC2 interaction [4] = assay: Coimmunoprecipitation of IRS-1 and HDAC2 in HepG2 cells; type: cell-based; settings: stimulation with insulin
Description: To further validate the IRS-1/HDAC2 interaction, several mammalian cell lines were used. MCF-7 is a human breast adenocarcinoma cell line, HepG2 is a hepatocellular carcinoma cell line and L6 is a rat skeletal muscle cell line. The MCF-7 cell line was chosen since these cells have a high endogenous production of IRS-1. […] All precleared fractions were matched for protein content and then immunoprecipitated with anti-IRS-1 antibody. […] A similar. experiment was performed the other way around, i.e. HDAC2 was immunoprecipitated from the cell extracts and the subsequent membrane was probed with anti-IRS-1 antibodies.

IRS-1/HDAC2 interaction [5] = assay: Coimmunoprecipitation of IRS-1 and HDAC2 in L6 cells; type: cell-based, rat; settings: stimulation with insulin
Description: To further validate the IRS-1/HDAC2 interaction, several mammalian cell lines were used. MCF-7 is a human breast adenocarcinoma cell line, HepG2 is a hepatocellular carcinoma cell line and L6 is a rat skeletal muscle cell line. The MCF-7 cell line was chosen since these cells have a high endogenous production of IRS-1. Cells were grown to confluency, […] cell lysis buffer (comprising 20 mM Hepes, pH 7.6, 20% glycerol, 10 mM NaCl, 1.5 mM MgCl2, 0.2 mM EDTA, 0.1% NP40, 25 mM NaF, 25 mM β-glycerophosphate, 1 mM DTT, 1 mM Na orthovanadate with protease inhibitors). All precleared fractions were matched for protein content and then immunoprecipitated with anti-IRS-1 antibody. […] A similar. experiment was performed the other way around, i.e. HDAC2 was immunoprecipitated from the cell extracts and the subsequent membrane was probed with anti-IRS-1 antibodies.

IRS-1/HDAC2 interaction [6] = assay: Coimmunoprecipitation of IRS-1 and HDAC2 in MCF-7 cells; type: cell-based, human; settings: MCF-7 cells treated with PMA; IP with anti-IRS-1 or anti-HDAC2
Description: To further validate the IRS-1/HDAC2 interaction, several mammalian cell lines were used. MCF-7 is a human breast adenocarcinoma cell line, HepG2 is a hepatocellular carcinoma cell line and L6 is a rat skeletal muscle cell line. The MCF-7 cell line was chosen since these cells have a high endogenous production of IRS-1. Cells were grown to confluency, treated with IGF-1 or PMA ([…]) for different lengths of time and then harvested in hypotonic cell lysis buffer (comprising 20 mM Hepes, pH 7.6, 20% glycerol, 10 mM NaCl, 1.5 mM MgCl2, 0.2 mM EDTA, 0.1% NP40, 25 mM NaF, 25 mM β-glycerophosphate, 1 mM DTT, 1 mM Na orthovanadate with protease inhibitors). All precleared fractions were matched for protein content and then immunoprecipitated with anti-IRS-1 antibody. […] A similar. experiment was performed the other way around, i.e. HDAC2 was immunoprecipitated from the cell extracts and the subsequent membrane was probed with anti-IRS-1 antibodies.

Q: With `O=C(CCCCCCC(=O)Nc1ccccc1)NO` [SAHA, suberoylanilide hydroxamic acid] as the compound, how does the tolerability / toxicity [1] read?
A: well-tolerated, are not toxic

Q: Which “reversal of PMA-induced insulin resistance (tyrosine phosphorylation of IRS-1)” value ([2]; PMA and TSA simultaneously 4 h) does the source give for `CC(/C=C/C(=O)NO)=C\[C@@H](C)C(=O)c1ccc(N(C)C)cc1` [TSA, Trichostatin A] here?
A: insulin resistance can to a large extent be remedied

Q: And the “acetylation of IRS-1” value ([3]; FIG. 2)?
A: significantly pronounced

Q: And the “acetylation of IRS-1” value ([3]; FIG. 2, listed as Trichostatin A)?
A: enhanced

Q: With “insulin: insulin used to stimulate cells” as the compound, how does the “interaction between IRS-1 and HDAC2 (coimmunoprecipitation)” value (from here on “interaction between IRS-1 and HDAC2”) (IRS-1/HDAC2 interaction [4]) read?
A: not influenced

Q: What about the “interaction between IRS-1 and HDAC2” value (IRS-1/HDAC2 interaction [5]) of the same compound?
A: not influenced

Q: Which “insulin-stimulated tyrosine phosphorylation of IRS-1 (insulin resistance)” value ([2]; PMA 4 h) does the source give for `CCCCCCCCCCCCCC(=O)O[C@@H]1[C@@H](C)[C@@]2(O)[C@@H](C=C(CO)C[C@]3(O)C(=O)C(C)=C[C@@H]23)[C@@H]2C(C)(C)[C@]12OC(C)=O` [PMA, phorbol myristic acid] here?
A: makes the cells insulin resistant

Q: What about the “interaction between IRS-1 and HDAC2” value (IRS-1/HDAC2 interaction [6]) of the same compound?
A: the interaction is PMA-driven
